# Results as given in patent US20110006261A1, “USE OF AN OZONE/OXYGEN MIXTURE AS PRIMARY ANTICANCER THERAPY THROUGH INTRAPERITONEAL INSUFFLATION” (priority 2007, published 2011).
# Values joined by “and” are separate entries in the source; they are usually repeats but may differ in a detail not shown here. Equal values may be shown once.
# Assays:
# auricular VX2 carcinoma = test: Therapy of auricular VX2 carcinoma in rabbits by intraperitoneal gas insufflation (survival, tumor clearance); type: in vivo, New Zealand White (NZW) rabbit
# [1] = Adverse effects: intraabdominal pressure, body weight, clinical signs
# [2] = inhaled, mice; cited from earlier work
compound,measurement,setting,value
"O=O [O2, pure medical oxygen]",day of tumor clearance,auricular VX2 carcinoma; day after tumor cell inoculation,68 days and 85 days
same,mean survival time,auricular VX2 carcinoma; observation period 90 days after tumor cell inoculation,51 days
same,number of rabbits with tumor remission,auricular VX2 carcinoma; until day 90,two
same,maximal drop of mean body weight,[1]; compared to mean body weight on day 14,5.0%
O=[O+][O-] [ozone],adverse effect grade (weight loss),[2],grade II
same,weight loss,[2],up to 14%
medical ozone/oxygen (O3/O2) gas mixture,"severe side effects (sustained body weight reduction, gas embolism, fever, diarrhea, peritonitis)","[1]; rabbit, in vivo",no severe side effects
